What is called IC50 is the concentration needed to halve the response being measured.

This passage reports IC50 results from patent US20080221214A1, “Process for the preparation of "Urchym" a urease and alpha-chymotrypsin enzyme inhibitory drug” (priority 2006, published 2008).

The target of one assay is T1, α-chymotrypsin (Bos taurus, UniProt P00766).
T1 construct: purchased Sigma-Aldrich
The experiment in a line: α-Chymotrypsin assay and inhibition. The format is biochemical. The following applies: substrate N-succinyl-phenylalanine-p-nitroanilide, pH 7.6, 37° C., 30 min pre-incubation; read-out: IC50 value, α-chymotrypsin inhibitory activity.

A further assay addresses T2, Jack bean urease (Canavalia ensiformis, UniProt P07374).
T2 construct: purchased Sigma-Aldrich
The experiment in a line: biochemical.

T2 sequence (P07374 whole entry, looked up): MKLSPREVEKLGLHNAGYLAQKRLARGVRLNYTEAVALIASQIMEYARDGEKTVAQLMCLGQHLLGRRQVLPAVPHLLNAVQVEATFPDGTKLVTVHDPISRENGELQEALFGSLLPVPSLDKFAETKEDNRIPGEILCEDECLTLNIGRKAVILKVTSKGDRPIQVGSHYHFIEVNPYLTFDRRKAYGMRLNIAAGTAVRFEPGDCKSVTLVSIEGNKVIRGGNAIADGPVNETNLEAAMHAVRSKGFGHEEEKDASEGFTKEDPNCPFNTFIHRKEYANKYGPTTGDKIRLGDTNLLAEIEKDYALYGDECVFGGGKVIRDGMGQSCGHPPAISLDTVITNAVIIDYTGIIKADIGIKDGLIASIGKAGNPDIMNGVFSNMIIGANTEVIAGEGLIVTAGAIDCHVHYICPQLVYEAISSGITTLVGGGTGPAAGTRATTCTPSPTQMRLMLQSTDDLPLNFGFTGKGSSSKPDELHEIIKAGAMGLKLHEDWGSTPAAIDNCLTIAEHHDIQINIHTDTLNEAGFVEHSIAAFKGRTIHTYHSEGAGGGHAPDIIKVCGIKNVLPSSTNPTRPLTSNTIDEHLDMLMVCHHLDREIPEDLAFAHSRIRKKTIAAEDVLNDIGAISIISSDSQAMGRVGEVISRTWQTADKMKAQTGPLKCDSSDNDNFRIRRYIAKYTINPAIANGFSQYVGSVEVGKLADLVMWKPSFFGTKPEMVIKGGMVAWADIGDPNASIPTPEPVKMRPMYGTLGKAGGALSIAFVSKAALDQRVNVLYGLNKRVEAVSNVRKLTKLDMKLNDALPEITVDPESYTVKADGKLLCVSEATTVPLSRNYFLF
Method for Jack bean urease: Reaction mixtures comprising a 25 μL solution of enzyme (Jack bean urease, Sigma-Aldrich, specific activity 15 EU/mg) and 55 μL of buffer (0.01 M K2HPO43H2O, 1 MM EDTA 0.01 M LiCl; pH 8.2) containing 100 mM urea were incubated with 5 μL of the test compounds (0.01 μM-1 mM, dissolved in DMSO) at 30° C. for 15 min in 96-well plates. Urease activity was determined by measuring ammonia production using the indophenol method, 45 μL, of phenol reagent (1% w/v phenol and 0.005% w/v sodium nitroprusside) and 70 μL of alkali reagent (0.5% w/v NaOH and 0.1% w/v NaOCI) were added to each well (the final reaction volume was 200 μL). The increasing absorbance at 630 nm was measured after 50 min using a microplate reader (Molecular Device). All reactions were performed in triplicate. The results (change in absorbance per min) were processed using SoftMax Pro software (Molecular Device). Percent inhibitions were calculated using the formula 100−(ODtest well/ODcontrol×100).
Method for α-chymotrypsin: For the determination of α-chymotrypsin inhibitory activity the literature protocol was followed. In brief α-chymotrypsin (9 units/mL in 50 mM Tris-HCl buffer, pH 7.6; Sigma-Aldrich) was pre-incubated with the compound (3.02×10^−5 g/100 μL) for 30 min at 37° C. and then 100 μL of substrate solution (N-succinyl-phenylalanine-p-nitroanilide; 1 mg/mL) in 50 mM Tris-HCl buffer, pH 7.6) was added to start the enzyme reaction. The absorbance of released p-nitroaniline was continuously monitored at 410 nm until a significant color change had achieved. All reactions were performed in triplicate. Percent inhibitions were calculated using the formula 100-(ODtest well/ODcontrol×100).

As to `O=C(Nc1ccc([N+](=O)[O-])cc1)Nc1ccc([N+](=O)[O-])cc1` [Urchym, N-4-nitrophenyl-N′-4′-nitrophenylurea], the IC50 on α-chymotrypsin was 3150 ± 140 nM; at Jack bean urease it was 1250 nM.
